Common to all, as to type: cell-based
One series can be described thus: in vitro. The note with it: human, HaCaT cells (human keratinocyte cell line). As to the method: To investigate the cytotoxicity of each peptide prepared by the method of Example 1 to human keratinocyte cell line (HaCaT cell line, Dr. N E. Fusenig, Heidelberg, Germany) was measured.
Particularly, the HaCaT cell line cultured in DMEM supplemented with 10% FBS (Fetal Bovine Serum) was distributed in a 96-well plate at the density of 3×10^3 cells/well, followed by culture for 24 hours. The CM-MA, CMA1, CMA2, CMA3, CMA4, CMA5, or CMA6 peptide prepared in Example 1 was treated to each well at the concentration of 12.5, 25.0, 50.0, 100.0, or 200.0 μM/well, followed by reaction in a 5% CO2 incubator for 24 hours. Upon completion of the culture, 20 ul of the reaction solution containing 5 mg/ml MTT (Thiazolyl Blue Tetrazolium Bromide) dissolved in PBS (phosphate buffered saline) was added to each well, followed by reaction for 4 hours. Then, the supernatant was eliminated.

The subject of another series is Escherichia coli. The note with it: 12 h. As to the method: (§1) To compare the antibacterial activities among those peptides prepared by the method of Example 1 of the invention, the inventors measured MIC (minimal inhibitory concentration) of the peptide which is the minimum concentration for staying without being broken.
(§2) Particularly, the strains listed in Table 2 were purchased and cultured in each medium composed as instructed until the mid-log phase. The cells were diluted at the density of 5×10^5 cells/100 μl, which were then inoculated in a micro-titrate plate (Nunc, USA). Then, the CMA1, CMA2, CMA3, CMA4, CMA5, or CMA6 peptide synthesized in Example 1 was ½ fold diluted in each 96 well plate, and then added to the plate, followed by culture at 37° C. for 12 hours. OD620 was measured with a micro-titrate plate reader (Merck Elisa reader, Germany) to determine MIC for each strain. As for the control, the mother peptide CM-MA was treated by the same manner as described above and MIC was also determined.

For another series, the system named is Listeria monocytogenes. Conditions: 12 h. As to the method:
as §1, §2

The next series deals with Staphylococcus aureus. Conditions: 12 h. The procedure: as §1, §2
The test system of series [1] is Staphylococcus epidermidis. Conditions: 12 h. As to the method: as §1, §2
Another series concerns Salmonella typhimurium. The note with it: 12 h. The procedure:
as §1, §2

The next series deals with Pseudomonas aeruginosa. The note with it: 12 h. As to the method: as §1, §2

Converted amounts (≈) assume the structure as drawn. Peptide text beside a SMILES is read from it.

What is called viability is the share of living cells, or the viability signal relative to a control. A higher viability goes with better survival.

`CC[C@H](C)[C@H](NC(=O)CNC(=O)[C@@H](NC(=O)[C@H](CCCCN)NC(=O)[C@H](CCCCN)NC(=O)[C@H](Cc1ccccc1)NC(=O)[C@H](CC(C)C)NC(=O)[C@H](CCCCN)NC(=O)[C@H](Cc1c[nH]c2ccccc12)NC(=O)[C@@H](N)CCCCN)[C@@H](C)CC)C(=O)NCC(=O)N[C@@H](CCCCN)C(=O)N[C@@H](Cc1ccccc1)C(=O)N[C@@H](CC(C)C)C(=O)N[C@@H](Cc1c[nH]cn1)C(=O)N[C@@H](CO)C(=O)N[C@@H](C)C(=O)N[C@@H](CCCCN)C(=O)N[C@@H](CCCCN)C(=O)N[C@@H](Cc1ccccc1)C(N)=O` [CA-MA, reference compound] (H-KWKLFKKIGIGKFLHSAKKF-NH2) yielded a viability at 24 h, 200 µM in the series “in vitro” of 1.4%. Further, the Minimal inhibitory concentration in the series with Escherichia coli is 2 µM (≈ 4.81 µg/mL); in the series on Listeria monocytogenes, 0.5 µM (≈ 1.2 µg/mL); in the series with Staphylococcus aureus, 8 µM (≈ 19.2 µg/mL); in series [1] it was 8 µM (≈ 19.2 µg/mL); with Salmonella typhimurium, 1 µM (≈ 2.4 µg/mL); in the series on Pseudomonas aeruginosa it was 1 µM (≈ 2.4 µg/mL).

Take `CC[C@H](C)[C@H](NC(=O)CNC(=O)[C@@H](NC(=O)[C@H](CCCCN)NC(=O)[C@H](CCCCN)NC(=O)[C@H](Cc1ccccc1)NC(=O)[C@H](CC(C)C)NC(=O)[C@H](CCCCN)NC(=O)[C@H](Cc1c[nH]c2ccccc12)NC(=O)[C@@H](N)CCCCN)[C@@H](C)CC)C(=O)NCC(=O)N[C@@H](CCCCN)C(=O)N[C@@H](Cc1c[nH]cn1)C(=O)N[C@@H](Cc1ccccc1)C(=O)N[C@@H](CC(C)C)C(=O)N[C@@H](CO)C(=O)N[C@@H](C)C(=O)N[C@@H](CCCCN)C(=O)N[C@@H](CCCCN)C(=O)N[C@@H](Cc1ccccc1)C(N)=O` [CMA1] (H-KWKLFKKIGIGKHFLSAKKF-NH2): the viability at 24 h, 200 µM in “in vitro” amounted to 51.1%. In addition, the Minimal inhibitory concentration in the series on Escherichia coli amounted to 8 µM (≈ 19.2 µg/mL); with Listeria monocytogenes it was 4 µM (≈ 9.62 µg/mL); with Staphylococcus aureus, 16 µM (≈ 38.5 µg/mL); in series [1], 32 µM (≈ 76.9 µg/mL); with Salmonella typhimurium it was 1 µM (≈ 2.4 µg/mL); in the series on Pseudomonas aeruginosa, 8 µM (≈ 19.2 µg/mL).

In the case of `CC[C@H](C)[C@H](NC(=O)CNC(=O)[C@@H](NC(=O)[C@H](CCCCN)NC(=O)[C@H](CCCCN)NC(=O)[C@H](Cc1ccccc1)NC(=O)[C@H](CC(C)C)NC(=O)[C@H](CCCCN)NC(=O)[C@H](Cc1c[nH]c2ccccc12)NC(=O)[C@@H](N)CCCCN)[C@@H](C)CC)C(=O)NCC(=O)N[C@@H](CCCCN)C(=O)N[C@@H](Cc1ccccc1)C(=O)N[C@@H](CC(C)C)C(=O)N[C@@H](CO)C(=O)N[C@@H](C)C(=O)N[C@@H](Cc1c[nH]cn1)C(=O)N[C@@H](CCCCN)C(=O)N[C@@H](CCCCN)C(=O)N[C@@H](Cc1ccccc1)C(N)=O` [CMA2] (H-KWKLFKKIGIGKFLSAHKKF-NH2), the Minimal inhibitory concentration is 2 µM (≈ 4.81 µg/mL) with Escherichia coli; 1 µM (≈ 2.4 µg/mL) in the series with Listeria monocytogenes; 32 µM (≈ 76.9 µg/mL) with Staphylococcus aureus; 16 µM (≈ 38.5 µg/mL) in series [1]; 1 µM (≈ 2.4 µg/mL) with Salmonella typhimurium; 4 µM (≈ 9.62 µg/mL) in the series with Pseudomonas aeruginosa.

In the series “in vitro”, `CC[C@H](C)[C@H](NC(=O)CNC(=O)[C@@H](NC(=O)[C@H](Cc1c[nH]cn1)NC(=O)[C@H](CCCCN)NC(=O)[C@H](CCCCN)NC(=O)[C@H](CC(C)C)NC(=O)[C@H](CCCCN)NC(=O)[C@H](Cc1c[nH]c2ccccc12)NC(=O)[C@@H](N)CCCCN)[C@@H](C)CC)C(=O)NCC(=O)N[C@@H](CCCCN)C(=O)N[C@@H](Cc1c[nH]cn1)C(=O)N[C@@H](Cc1ccccc1)C(=O)N[C@@H](CC(C)C)C(=O)N[C@@H](CO)C(=O)N[C@@H](C)C(=O)N[C@@H](CCCCN)C(=O)N[C@@H](CCCCN)C(=O)N[C@@H](Cc1ccccc1)C(N)=O` [CMA3] (H-KWKLKKHIGIGKHFLSAKKF-NH2; N-terminus assumed) displayed a viability at 24 h, 200 µM of 92.4%. Further, the Minimal inhibitory concentration in the series on Escherichia coli is 4 µM (≈ 9.58 µg/mL); in the series on Listeria monocytogenes, 2 µM (≈ 4.79 µg/mL); in the series on Staphylococcus aureus, 32 µM (≈ 76.6 µg/mL); in series [1] it was 64 µM (≈ 153 µg/mL); in the series with Salmonella typhimurium, 1 µM (≈ 2.39 µg/mL); with Pseudomonas aeruginosa, 8 µM (≈ 19.2 µg/mL).

`CC[C@H](C)[C@H](NC(=O)CNC(=O)[C@@H](NC(=O)[C@H](CCCCN)NC(=O)[C@H](CCCCN)NC(=O)[C@H](CC(C)C)NC(=O)[C@H](Cc1c[nH]cn1)NC(=O)[C@H](CCCCN)NC(=O)[C@H](Cc1c[nH]c2ccccc12)NC(=O)[C@@H](N)CCCCN)[C@@H](C)CC)C(=O)NCC(=O)N[C@@H](CCCCN)C(=O)N[C@@H](Cc1ccccc1)C(=O)N[C@@H](CC(C)C)C(=O)N[C@@H](CO)C(=O)N[C@@H](C)C(=O)N[C@@H](Cc1c[nH]cn1)C(=O)N[C@@H](CCCCN)C(=O)N[C@@H](CCCCN)C(=O)N[C@@H](Cc1ccccc1)C(N)=O` [CMA4] (H-KWKHLKKIGIGKFLSAHKKF-NH2): the viability at 24 h, 200 µM in the series “in vitro” amounted to 64.5%. The Minimal inhibitory concentration in the series with Escherichia coli came out at 4 µM (≈ 9.58 µg/mL); with Listeria monocytogenes, 2 µM (≈ 4.79 µg/mL); in the series on Staphylococcus aureus it was 32 µM (≈ 76.6 µg/mL); in series [1], 32 µM (≈ 76.6 µg/mL); with Salmonella typhimurium, 1 µM (≈ 2.39 µg/mL); in the series on Pseudomonas aeruginosa, 16 µM (≈ 38.3 µg/mL).

In the series “in vitro”, `CC[C@H](C)[C@H](NC(=O)CNC(=O)[C@@H](NC(=O)[C@H](CCCCN)NC(=O)[C@H](CCCCN)NC(=O)[C@H](CC(C)C)NC(=O)[C@H](Cc1c[nH]cn1)NC(=O)[C@H](CCCCN)NC(=O)[C@H](Cc1c[nH]c2ccccc12)NC(=O)[C@@H](N)CCCCN)[C@@H](C)CC)C(=O)NCC(=O)N[C@@H](CCCCN)C(=O)N[C@@H](Cc1c[nH]cn1)C(=O)N[C@@H](Cc1ccccc1)C(=O)N[C@@H](CC(C)C)C(=O)N[C@@H](CO)C(=O)N[C@@H](C)C(=O)N[C@@H](CCCCN)C(=O)N[C@@H](CCCCN)C(=O)N[C@@H](Cc1ccccc1)C(N)=O` [CMA5] (H-KWKHLKKIGIGKHFLSAKKF-NH2) returned a viability at 24 h, 200 µM of 78.9%. Further, the Minimal inhibitory concentration in the series with Escherichia coli is 8 µM (≈ 19.2 µg/mL); in the series on Listeria monocytogenes, 2 µM (≈ 4.79 µg/mL); in the series with Staphylococcus aureus, 32 µM (≈ 76.6 µg/mL); in series [1] it was 64 µM (≈ 153 µg/mL); with Salmonella typhimurium, 1 µM (≈ 2.39 µg/mL); in the series on Pseudomonas aeruginosa, 16 µM (≈ 38.3 µg/mL).

With `CC[C@H](C)[C@H](NC(=O)CNC(=O)[C@@H](NC(=O)[C@H](CCCCN)NC(=O)[C@H](CCCCN)NC(=O)[C@H](Cc1ccccc1)NC(=O)[C@H](CC(C)C)NC(=O)[C@H](CCCCN)NC(=O)[C@H](Cc1c[nH]c2ccccc12)NC(=O)[C@@H](N)CCCCN)[C@@H](C)CC)C(=O)NCC(=O)N[C@@H](CCCCN)C(=O)N[C@@H](Cc1ccccc1)C(=O)N[C@@H](CC(C)C)C(=O)N[C@@H](CCC(N)=O)C(=O)N[C@@H](CO)C(=O)N[C@@H](C)C(=O)N[C@@H](CCCCN)C(=O)N[C@@H](CCCCN)C(=O)N[C@@H](Cc1ccccc1)C(N)=O` [CMA6] (H-KWKLFKKIGIGKFLQSAKKF-NH2; N-terminus assumed), the Minimal inhibitory concentration was found to be 4 µM (≈ 9.58 µg/mL) in the series on Escherichia coli; 1 µM (≈ 2.4 µg/mL) in the series on Listeria monocytogenes; 16 µM (≈ 38.3 µg/mL) with Staphylococcus aureus; 8 µM (≈ 19.2 µg/mL) in series [1]; 1 µM (≈ 2.4 µg/mL) with Salmonella typhimurium; 4 µM (≈ 9.58 µg/mL) in the series with Pseudomonas aeruginosa.
